Values after ≈ are worked out from the molar mass of the structure shown.
What was measured:
[1] = system: Bacillus subtilis; experiment: Antibacterial activity against Bacillus subtilis 168; type: functional
[2] = target: T1, Cell division protein FtsZ (Bacillus subtilis (strain 168)) (UniProt P17865); experiment: Inhibition of FtsZ-mediated cell division in Bacillus subtilis 168 assessed as drug concentration required to produce filamentation
T1 sequence (whole entry): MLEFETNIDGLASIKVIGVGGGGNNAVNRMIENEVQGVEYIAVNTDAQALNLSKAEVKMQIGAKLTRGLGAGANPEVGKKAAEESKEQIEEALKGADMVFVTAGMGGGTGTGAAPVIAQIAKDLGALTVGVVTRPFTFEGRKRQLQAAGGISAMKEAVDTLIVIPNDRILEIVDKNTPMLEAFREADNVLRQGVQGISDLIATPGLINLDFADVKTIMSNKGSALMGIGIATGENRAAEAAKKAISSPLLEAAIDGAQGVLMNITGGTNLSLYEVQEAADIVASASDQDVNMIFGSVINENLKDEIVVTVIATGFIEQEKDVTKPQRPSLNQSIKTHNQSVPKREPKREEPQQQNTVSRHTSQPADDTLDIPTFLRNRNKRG

[3] = system: Staphylococcus aureus; experiment: Antibacterial activity against Staphylococcus aureus ATCC 29213; type: functional
[4] = target: T2, Cell division protein FtsZ (Staphylococcus aureus) (UniProt P0A031); experiment: Inhibition of FtsZ-mediated cell division in Staphylococcus aureus ATCC 29213 assessed as drug concentration required to produce ballooning
T2 sequence (whole entry): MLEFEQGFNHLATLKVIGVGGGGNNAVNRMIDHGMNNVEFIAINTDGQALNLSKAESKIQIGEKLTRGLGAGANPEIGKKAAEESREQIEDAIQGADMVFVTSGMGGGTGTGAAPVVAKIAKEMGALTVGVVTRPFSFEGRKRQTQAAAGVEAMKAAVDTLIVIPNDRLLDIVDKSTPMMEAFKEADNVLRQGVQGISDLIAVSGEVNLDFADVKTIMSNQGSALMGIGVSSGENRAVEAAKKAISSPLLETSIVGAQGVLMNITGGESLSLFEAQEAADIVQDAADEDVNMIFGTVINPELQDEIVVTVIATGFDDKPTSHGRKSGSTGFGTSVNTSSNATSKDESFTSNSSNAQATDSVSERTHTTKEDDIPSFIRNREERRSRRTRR

[5] = system: Staphylococcus aureus; experiment: Antibacterial activity against methicillin-resistant Staphylococcus aureus ATCC 700698; type: functional
[6] = system: Staphylococcus aureus; experiment: Antibacterial activity against methicillin-resistant Staphylococcus aureus ATCC 43300; type: functional
[7] = system: Staphylococcus aureus; experiment: Antibacterial activity against methicillin-susceptible Staphylococcus aureus ATCC 601055; type: functional
[8] = system: Staphylococcus aureus; experiment: Antibacterial activity against methicillin-susceptible Staphylococcus aureus ATCC 19636; type: functional
[9] = system: Staphylococcus aureus; experiment: Antibacterial activity against Staphylococcus aureus ATCC 601055 with FtsZ […] point mutation; type: functional
[10] = system: Staphylococcus aureus; experiment: Antibacterial activity against […] Staphylococcus aureus ATCC 29213; type: functional
[11] = system: Staphylococcus aureus; experiment: Antibacterial activity against methicillin-susceptible Staphylococcus aureus ATCC 25923; type: functional
[12] = system: Staphylococcus epidermidis; experiment: Antibacterial activity against Staphylococcus epidermidis ATCC 12228; type: functional
[13] = system: Staphylococcus aureus; experiment: Antibacterial activity against Staphylococcus aureus ATCC 601055 with FtsZ P300R point mutation; type: functional
[14] = system: Staphylococcus aureus; experiment: Antibacterial activity against methicillin-resistant Staphylococcus aureus ATCC 607004; type: functional

Structure (SMILES)	MIC [1] [µg/mL]	Activity [2] [µg/mL]	MIC [3] [µg/mL]	other results
COc1ccc(C(N)=O)cc1	> 4000			
CC(=O)O[C@H]1C[C@@]2(C)[C@@H](C[C@@H](O)[C@H]3[C@@]4(C)CC[C@@H](O)[C@@H](C)[C@@H]4CC[C@@]32C)/C1=C(\CCC=C(C)C)C(=O)O [FUSIDIC ACID]			0.06 (≈ 0.116 µM)	
COc1cccc(C(N)=O)c1	4000 (≈ 26500 µM)	500	2050 (≈ 13500 µM)	MIC [5]: 4100 µg/mL (≈ 27100 µM); MIC [6]: 4100 µg/mL (≈ 27100 µM); MIC [7]: 4000 µg/mL (≈ 26500 µM); MIC [8]: 2050 µg/mL (≈ 13500 µM); MIC [9]: > 8000 µg/mL; MIC [10]: 2050 µg/mL (≈ 13500 µM); MIC [11]: 4100 µg/mL (≈ 27100 µM); MIC [12]: 4100 µg/mL (≈ 27100 µM); MIC [13]: > 8000 µg/mL; MIC [14]: 4100 µg/mL (≈ 27100 µM)
CSc1cccc(C(N)=O)c1	> 4000			
CCCCCCCCCOc1ccc(Cl)c(C(N)=O)c1F	0.5 (≈ 1.58 µM)	0.25	1 (≈ 3.17 µM)	Activity [4]: 0.5 µg/mL
CCCOc1cccc(C(N)=O)c1	500 (≈ 2790 µM)	375	256 (≈ 1430 µM)	
COc1cc(C(N)=O)ccc1[N+](=O)[O-]	> 4000			
COc1ccc([N+](=O)[O-])c(C(N)=O)c1	> 4000			
COc1cc(C(N)=O)ccc1F	> 4000			
CCCCCCOc1cccc(C(N)=O)c1	16 (≈ 72.3 µM)	8	16 (≈ 72.3 µM)	MIC [5]: 32 µg/mL (≈ 145 µM); MIC [6]: 16 µg/mL (≈ 72.3 µM); MIC [7]: 32 µg/mL (≈ 145 µM); MIC [8]: 16 µg/mL (≈ 72.3 µM); MIC [9]: > 128 µg/mL; MIC [10]: 16 µg/mL (≈ 72.3 µM); MIC [11]: 16 µg/mL (≈ 72.3 µM); MIC [12]: 32 µg/mL (≈ 145 µM); MIC [13]: > 128 µg/mL; MIC [14]: 32 µg/mL (≈ 145 µM)
COc1cccc(CC(N)=O)c1	> 4000			
COc1cccc(C(N)=O)c1F	512 (≈ 3030 µM)	128	512 (≈ 3030 µM)	
CCOc1cccc(C(N)=O)c1	2000 (≈ 12100 µM)	500	1020 (≈ 6200 µM)	
COc1ccc(C(N)=O)cc1OC	> 4000			
CCCCCCCCCOc1cccc(C(N)=O)c1	0.5 (≈ 1.9 µM)	0.18	2 (≈ 7.59 µM)	MIC [7]: 2 µg/mL (≈ 7.59 µM); MIC [9]: > 128 µg/mL; MIC [13]: > 128 µg/mL
CCCCOc1cccc(C(N)=O)c1	128 (≈ 662 µM)	24	128 (≈ 662 µM)	
CCCCCCCCCCOc1cccc(C(N)=O)c1	1 (≈ 3.6 µM)	0.5	64 (≈ 231 µM)	
CCCCCCCCCOc1ccc(F)c(C(N)=O)c1	1 (≈ 3.55 µM)	1	8 (≈ 28.4 µM)	Activity [4]: 2 µg/mL
COc1ccc(F)c(C(N)=O)c1F	512 (≈ 2740 µM)	256	512 (≈ 2740 µM)	
COc1cccc(C(N)=O)c1OC	> 4000			
C/C(=C\C(=O)OCCCCCCCCC(=O)O)C[C@@H]1OC[C@H](C[C@@H]2O[C@H]2[C@@H](C)[C@H](C)O)[C@@H](O)[C@H]1O [MUPIROCIN]			0.12 (≈ 0.24 µM)	
Cc1cccc(C(N)=O)c1	> 2000			
CCCCCCCCCOc1ccc(F)c(C(N)=O)c1F	0.125 (≈ 0.418 µM)	0.125	0.5 (≈ 1.67 µM)	Activity [4]: 0.25 µg/mL
COc1cccc(C(=O)NO)c1	4000 (≈ 23900 µM)			
O=C(O)c1cn(C2CC2)c2cc(N3CCNCC3)c(F)cc2c1=O [CIPROFLOXACIN]			0.5 (≈ 1.51 µM)	
O=C(N[C@H](CO)[C@H](O)c1ccc([N+](=O)[O-])cc1)C(Cl)Cl [CHLORAMPHENICOL]			4 (≈ 12.4 µM)	

More lines, main results first:

MIC [1] [µg/mL]	Activity [2] [µg/mL]	MIC [3] [µg/mL]	Structure (SMILES)	other results
1 (≈ 4.01 µM)	0.37	4 (≈ 16 µM)	CCCCCCCCOc1cccc(C(N)=O)c1	
> 4000			COc1cccc(C(N)=O)c1C	
0.5 (≈ 1.58 µM)	0.5	2 (≈ 6.33 µM)	CCCCCCCCCOc1ccc(F)c(C(N)=O)c1Cl	Activity [4]: 1 µg/mL
1020 (≈ 5030 µM)	256		COc1ccc(Cl)c(C(N)=O)c1F	
> 4000			COc1cccc(C(=O)O)c1	
2000 (≈ 12000 µM)			COc1cccc(C(N)=S)c1	
> 4000	2050		COc1ccc(F)c(C(N)=O)c1Cl	
> 4000			COc1cc(OC)cc(C(N)=O)c1	
32 (≈ 154 µM)	24	32 (≈ 154 µM)	CCCCCOc1cccc(C(N)=O)c1	
> 4000	3000		NC(=O)c1cccc(O)c1	
> 4000			CNC(=O)c1cccc(OC)c1	
> 4000			CNc1cccc(C(N)=O)c1	
4 (≈ 13.7 µM)	1	> 256	CCCCCCCCCCCOc1cccc(C(N)=O)c1	
4 (≈ 17 µM)	1.5	8 (≈ 34 µM)	CCCCCCCOc1cccc(C(N)=O)c1	
250 (≈ 1820 µM)			COc1cccc(CN)c1	
	> 128	> 256	CCCCCCCCCCCCOc1cccc(C(N)=O)c1	
> 4000			NC(=O)c1cccc(OC(F)(F)F)c1	
> 4000			COc1ccc(OC)c(C(N)=O)c1	
0.125 (≈ 0.444 µM)	0.125	0.5 (≈ 1.78 µM)	CCCCCCCCCOc1cccc(C(N)=O)c1F	Activity [4]: 0.5 µg/mL
800 (≈ 4730 µM)			COc1ccc(F)c(C(N)=O)c1	
> 4000			COc1cccc(C(N)=O)c1[N+](=O)[O-]	

Reference: ChEMBL document CHEMBL1154532, “Antibacterial alkoxybenzamide inhibitors of the essential bacterial cell division protein FtsZ” (2009)
